Numbers after ± are expanded uncertainties.
Details: 313.14 K, Liquid, Vibrating tube method

CCCCCCCCCC [decane]
Details | mass density [kg/m3]
9156 kPa | 722.3 ± 2
9171 kPa | 722.4 ± 2
9194 kPa | 722.3 ± 2
9210 kPa | 722.4 ± 2
9227 kPa | 722.3 ± 2
9245 kPa | 722.2 ± 2
9261 kPa | 722.3 ± 2
9284 kPa | 722.4 ± 2
9300 kPa | 722.4 ± 2
9323 kPa | 722.5 ± 2
9338 kPa | 722.6 ± 2
9358 kPa | 722.5 ± 2
9374 kPa | 722.6 ± 2
9392 kPa | 722.5 ± 2
9410 kPa | 722.6 ± 2
9431 kPa | 722.4 ± 2
9447 kPa | 722.6 ± 2
9463 kPa | 722.7 ± 2
9479 kPa | 722.4 ± 2
9503 kPa | 722.6 ± 2
9522 kPa | 722.6 ± 2
9538 kPa | 722.5 ± 2
9554 kPa | 722.6 ± 2
9574 kPa | 722.7 ± 2
9587 kPa | 722.7 ± 2
9607 kPa | 722.6 ± 2
9627 kPa | 722.6 ± 2
9646 kPa | 722.6 ± 2
9674 kPa | 722.5 ± 2
9694 kPa | 722.8 ± 2
9717 kPa | 722.7 ± 2
9733 kPa | 722.8 ± 2
9747 kPa | 722.7 ± 2
9770 kPa | 722.9 ± 2
9785 kPa | 722.8 ± 2
9807 kPa | 722.8 ± 2
9828 kPa | 722.9 ± 2
9851 kPa | 722.9 ± 2
9869 kPa | 722.8 ± 2
9892 kPa | 722.9 ± 2
9913 kPa | 722.9 ± 2
9930 kPa | 723 ± 2
9945 kPa | 722.9 ± 2
9970 kPa | 722.9 ± 2
9985 kPa | 722.9 ± 2
10007 kPa | 722.8 ± 2
10022 kPa | 723 ± 2
10046 kPa | 723 ± 2
10062 kPa | 723 ± 2
10088 kPa | 723 ± 2
10107 kPa | 723 ± 2
10128 kPa | 723.1 ± 2
10147 kPa | 723.1 ± 2
10166 kPa | 723 ± 2
10182 kPa | 723.1 ± 2
10199 kPa | 723.1 ± 2
10221 kPa | 723.1 ± 2
10234 kPa | 723.2 ± 2
10262 kPa | 723.3 ± 2
10278 kPa | 723.1 ± 2
10295 kPa | 723.2 ± 2
10317 kPa | 723.1 ± 2
10340 kPa | 723.2 ± 2
10361 kPa | 723.2 ± 2
10381 kPa | 723.2 ± 2
10400 kPa | 723.3 ± 2
10421 kPa | 723.3 ± 2
10437 kPa | 723.4 ± 2
10454 kPa | 723.3 ± 2
10483 kPa | 723.4 ± 2
10497 kPa | 723.3 ± 2
10520 kPa | 723.3 ± 2
10540 kPa | 723.4 ± 2
10567 kPa | 723.5 ± 2
10593 kPa | 723.4 ± 2
10616 kPa | 723.5 ± 2
10634 kPa | 723.5 ± 2
10655 kPa | 723.6 ± 2
10673 kPa | 723.6 ± 2
10694 kPa | 723.6 ± 2
10718 kPa | 723.6 ± 2
10739 kPa | 723.6 ± 2
10757 kPa | 723.6 ± 2
10781 kPa | 723.5 ± 2
10805 kPa | 723.6 ± 2
10821 kPa | 723.7 ± 2
10843 kPa | 723.6 ± 2
10861 kPa | 723.7 ± 2
10876 kPa | 723.6 ± 2
10895 kPa | 723.7 ± 2
10916 kPa | 723.7 ± 2
10935 kPa | 723.7 ± 2
10960 kPa | 723.6 ± 2
10988 kPa | 723.7 ± 2
11007 kPa | 723.8 ± 2
11027 kPa | 723.8 ± 2
11049 kPa | 723.8 ± 2
11070 kPa | 723.9 ± 2
11096 kPa | 723.8 ± 2
11115 kPa | 723.9 ± 2
11141 kPa | 723.9 ± 2
11164 kPa | 723.9 ± 2
11184 kPa | 723.9 ± 2
11210 kPa | 723.9 ± 2
11236 kPa | 723.9 ± 2
11260 kPa | 724 ± 2
11286 kPa | 724 ± 2
11306 kPa | 724.1 ± 2
11326 kPa | 724 ± 2
11344 kPa | 724.1 ± 2
11361 kPa | 723.9 ± 2
11385 kPa | 724.2 ± 2
11406 kPa | 724 ± 2
11429 kPa | 724 ± 2
11459 kPa | 724 ± 2
11480 kPa | 724 ± 2
11497 kPa | 724.2 ± 2
11518 kPa | 724.2 ± 2
11549 kPa | 724.3 ± 2
11570 kPa | 724.3 ± 2
11592 kPa | 724.1 ± 2
11609 kPa | 724.3 ± 2
11631 kPa | 724.3 ± 2
11661 kPa | 724.2 ± 2
11689 kPa | 724.3 ± 2
11711 kPa | 724.5 ± 2
11743 kPa | 724.4 ± 2
11765 kPa | 724.3 ± 2
11794 kPa | 724.4 ± 2
11820 kPa | 724.4 ± 2
11852 kPa | 724.4 ± 2
11886 kPa | 724.5 ± 2
11915 kPa | 724.5 ± 2
11945 kPa | 724.4 ± 2
11976 kPa | 724.6 ± 2
12006 kPa | 724.5 ± 2
12029 kPa | 724.6 ± 2
12060 kPa | 724.5 ± 2
12090 kPa | 724.6 ± 2
12118 kPa | 724.7 ± 2
12149 kPa | 724.5 ± 2
12173 kPa | 724.7 ± 2
12197 kPa | 724.7 ± 2
12233 kPa | 724.6 ± 2
12257 kPa | 724.7 ± 2
12287 kPa | 724.9 ± 2
12324 kPa | 724.8 ± 2
12341 kPa | 724.8 ± 2
12365 kPa | 724.9 ± 2
12382 kPa | 724.9 ± 2
12406 kPa | 724.9 ± 2
12434 kPa | 724.8 ± 2
12459 kPa | 724.9 ± 2
12483 kPa | 724.9 ± 2
12501 kPa | 724.9 ± 2
12523 kPa | 725 ± 2
12552 kPa | 725 ± 2
12574 kPa | 725 ± 2
12596 kPa | 724.9 ± 2
12624 kPa | 724.9 ± 2
12650 kPa | 725 ± 2
12672 kPa | 725.1 ± 2
12695 kPa | 725.2 ± 2
12721 kPa | 725.1 ± 2
12751 kPa | 725.1 ± 2
12774 kPa | 725.1 ± 2
12807 kPa | 725.3 ± 2
12834 kPa | 725.2 ± 2
12857 kPa | 725.2 ± 2
12882 kPa | 725.3 ± 2
12901 kPa | 725.2 ± 2
12923 kPa | 725.3 ± 2
12948 kPa | 725.2 ± 2
12973 kPa | 725.3 ± 2
12992 kPa | 725.3 ± 2
13015 kPa | 725.3 ± 2
13037 kPa | 725.5 ± 2
13059 kPa | 725.3 ± 2
13081 kPa | 725.3 ± 2
13107 kPa | 725.5 ± 2
13127 kPa | 725.5 ± 2
13151 kPa | 725.5 ± 2
13171 kPa | 725.4 ± 2
13187 kPa | 725.6 ± 2
13210 kPa | 725.5 ± 2
13230 kPa | 725.5 ± 2
13253 kPa | 725.4 ± 2
13276 kPa | 725.5 ± 2
13309 kPa | 725.5 ± 2
13333 kPa | 725.4 ± 2
13357 kPa | 725.5 ± 2
13384 kPa | 725.7 ± 2
13405 kPa | 725.6 ± 2
13434 kPa | 725.7 ± 2
13451 kPa | 725.8 ± 2
13475 kPa | 725.6 ± 2
13499 kPa | 725.8 ± 2
13520 kPa | 725.7 ± 2
13538 kPa | 725.7 ± 2
13562 kPa | 725.7 ± 2
13583 kPa | 725.7 ± 2
13607 kPa | 725.8 ± 2
13636 kPa | 725.8 ± 2
13654 kPa | 725.8 ± 2
13682 kPa | 726 ± 2
13714 kPa | 725.9 ± 2
13743 kPa | 725.9 ± 2
13768 kPa | 725.9 ± 2
13797 kPa | 725.9 ± 2
13830 kPa | 725.9 ± 2
13848 kPa | 726 ± 2
13878 kPa | 726 ± 2
13900 kPa | 726 ± 2
13932 kPa | 726 ± 2
13970 kPa | 726.1 ± 2
13987 kPa | 726.1 ± 2
14008 kPa | 726.2 ± 2
14029 kPa | 726.1 ± 2
14050 kPa | 726.2 ± 2
14071 kPa | 726.1 ± 2
14091 kPa | 726.2 ± 2
14119 kPa | 726.1 ± 2
14140 kPa | 726.1 ± 2
14168 kPa | 726.2 ± 2
14196 kPa | 726.3 ± 2
14224 kPa | 726.2 ± 2
14253 kPa | 726.3 ± 2
14277 kPa | 726.4 ± 2
14302 kPa | 726.3 ± 2
14328 kPa | 726.3 ± 2
14353 kPa | 726.4 ± 2
14371 kPa | 726.3 ± 2
14405 kPa | 726.4 ± 2
14426 kPa | 726.3 ± 2
14449 kPa | 726.4 ± 2
14485 kPa | 726.5 ± 2
14511 kPa | 726.5 ± 2
14540 kPa | 726.5 ± 2
14570 kPa | 726.5 ± 2
14600 kPa | 726.4 ± 2
14630 kPa | 726.5 ± 2
14663 kPa | 726.6 ± 2
14693 kPa | 726.7 ± 2
14719 kPa | 726.7 ± 2
14750 kPa | 726.6 ± 2
14780 kPa | 726.7 ± 2
14811 kPa | 726.8 ± 2
14830 kPa | 726.7 ± 2
14861 kPa | 726.7 ± 2
14892 kPa | 726.8 ± 2
14919 kPa | 726.8 ± 2
14944 kPa | 726.8 ± 2
14964 kPa | 726.8 ± 2
14984 kPa | 726.8 ± 2
15008 kPa | 726.8 ± 2
15036 kPa | 726.9 ± 2
15068 kPa | 726.9 ± 2
15100 kPa | 727 ± 2
15125 kPa | 727 ± 2
15154 kPa | 726.9 ± 2
15190 kPa | 727 ± 2
15219 kPa | 727 ± 2
15248 kPa | 727 ± 2
15273 kPa | 727.1 ± 2
15314 kPa | 727.1 ± 2
15343 kPa | 727.2 ± 2
15372 kPa | 727.2 ± 2
15397 kPa | 727 ± 2
15423 kPa | 727.1 ± 2
15441 kPa | 727.2 ± 2
15467 kPa | 727.3 ± 2
15485 kPa | 727.2 ± 2
15504 kPa | 727.2 ± 2
15526 kPa | 727.2 ± 2

— the NIST ThermoML archive (doi:10.1021/je800110r)
